In the Kinase Knowledgebase extract (Sharma et al. 2016) one finds inhibition and IC50 data, which are given here for 62 molecules.

Molecules are shown by their SMILES. Some results are limits rather than exact numbers.

Usually IC50 stands for the concentration that inhibits the measured activity by half. Lower therefore signals greater potency.

Test [1] deals with MAPK14 (human) (UniProt Q16539). Description: Inhibition of MAPK14 Kinase Activity by PHAS-I Assay. The settings on record: for inhibition: concentration not given here.
MAPK14 (human), sequence (Q16539 whole entry, looked up): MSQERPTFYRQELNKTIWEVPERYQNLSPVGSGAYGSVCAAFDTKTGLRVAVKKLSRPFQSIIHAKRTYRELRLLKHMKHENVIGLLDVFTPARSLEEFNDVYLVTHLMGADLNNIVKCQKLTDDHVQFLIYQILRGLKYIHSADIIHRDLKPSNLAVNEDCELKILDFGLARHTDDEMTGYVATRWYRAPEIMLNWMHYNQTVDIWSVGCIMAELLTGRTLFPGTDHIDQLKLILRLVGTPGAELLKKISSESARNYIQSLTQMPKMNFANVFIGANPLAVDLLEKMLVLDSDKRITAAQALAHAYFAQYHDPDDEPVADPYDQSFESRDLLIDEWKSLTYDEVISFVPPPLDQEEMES
Test [2] shares this target. Description: Inhibition of LPS Stimulated TNF Production by U937 Cells.

Regarding `O=C(NCc1[nH]nc(-c2ccc(F)cc2)c1-c1ccncc1)c1cccc(CCl)c1`, the inhibition in test [1] is 83%; in test [2] (concentration not given here), 21%.
As to `COc1ccc(CC(=O)NCCCc2[nH]nc(-c3ccc(F)cc3)c2-c2ccncc2)cc1OC`, the inhibition in test [1] and in test [2] (concentration not given here) was 67% throughout.
As for `O=C(NCCCc1[nH]nc(-c2ccc(F)cc2)c1-c1ccncc1)C1CCCC1`, the inhibition was found to be 79% in test [1] and 66% in test [2] (concentration not given here).
For the molecule `COc1ccc(NC(=O)N2CCC(c3[nH]nc(-c4ccc(F)cc4)c3-c3ccncc3)CC2)c(OC)c1`, the IC50 in test [1] is less than 0.1 µM; in test [2], 0.44 µM.
In test [1], `Cc1ccc(S(=O)(=O)N[C@H](CCc2ccccc2)C(=O)NCc2[nH]nc(-c3ccc(F)cc3)c2-c2ccncc2)cc1` showed an inhibition of 94%. In test [2], this molecule registered an IC50 of 10 µM.
As to `COc1cc(OC)c(NC(=O)NCCc2[nH]nc(-c3ccc(F)cc3)c2-c2ccncc2)cc1Cl`, the inhibition in test [1] turned out to be 82%; in test [2] (concentration not given here), 32%.
As to `O=C(NCCc1[nH]nc(-c2ccc(F)cc2)c1-c1ccncc1)c1ccccc1C(F)(F)F`, the inhibition in test [1] turned out to be 54%; in test [2] (concentration not given here), 27%.
For the molecule `CC(C)(C)C(=O)NCCc1[nH]nc(-c2ccc(F)cc2)c1-c1ccncc1`, the inhibition in test [1] stood at 69%; in test [2] (concentration not given here), 66%.
For `CC(=O)Oc1cccc(C(=O)NCc2[nH]nc(-c3ccc(F)cc3)c2-c2ccncc2)c1`, the inhibition in test [1] worked out at 98%; in test [2] (concentration not given here) it was 52%.
`O=C(NCCc1[nH]nc(-c2ccc(F)cc2)c1-c1ccncc1)Nc1cc(Cl)ccc1Cl`: the values for the inhibition in test [1] and in test [2] (concentration not given here) were 61% and 39%, respectively.
Regarding `Cc1ccc(S(=O)(=O)N[C@@H](Cc2ccccc2)C(=O)NCCc2[nH]nc(-c3ccc(F)cc3)c2-c2ccncc2)cc1`, the inhibition in test [1] is 72%; in test [2] (concentration not given here) it was 17%.
Taken in the same sequence, the figures for `CCOC(=O)CCOC(=O)NCc1[nH]nc(-c2ccc(F)cc2)c1-c1ccncc1` were 54% and 5%.
Turning to `O=C(NCc1[nH]nc(-c2ccc(F)cc2)c1-c1ccncc1)Nc1ccc(I)cc1`, the inhibition was found to be 27% in test [1] and 35% in test [2] (concentration not given here).
As for `CCN(CC)C1CCN(C(=O)Cn2nc(-c3ccc(F)cc3)c(-c3ccncc3)c2C)C1` (centres undefined), the results for the inhibition in test [1] and in test [2] were 40% and 59 µM, respectively.
In the case of `COc1cccc(CC(=O)NCCc2[nH]nc(-c3ccc(F)cc3)c2-c2ccncc2)c1`, the inhibition in test [1] came out at 63%; in test [2] (concentration not given here) it was 31%.
Taken in the same sequence, the figures for `C=CCN(C(=O)Cn1nc(-c2ccc(F)cc2)c(-c2ccncc2)c1C)C1CCCCC1` were 50% and 6%.
Turning to `O=C(NCCc1[nH]nc(-c2ccc(F)cc2)c1-c1ccncc1)[C@H]1CCCN1`, the inhibition was determined as 89% in test [1] and 63% in test [2] (concentration not given here).
Taken in the same sequence, the figures for `Cc1c(-c2ccncc2)c(-c2ccc(F)cc2)nn1CC(=O)N1CCCCC1CCN1CCCCC1` (centres undefined) were 26% and 13%.
In the case of `COc1ccccc1C(=O)NCCc1[nH]nc(-c2ccc(F)cc2)c1-c1ccncc1`, the inhibition was 53% in test [1] and 14% in test [2] (concentration not given here).
As for `Cc1c(-c2ccncc2)c(-c2ccc(F)cc2)nn1CC(=O)Nc1ccccc1Sc1ccc([N+](=O)[O-])cn1`, the inhibition in test [1] turned out to be 90%; in test [2] (concentration not given here) it was 18%.
In the case of `CCN(CC)C(=O)Cn1nc(-c2ccc(F)cc2)c(-c2ccncc2)c1C`, the results for the inhibition in test [1] and in test [2] (concentration not given here) were 54% and 36%, respectively.
The matching figures for `COc1ccc(C2OCCN2C(=O)Cn2nc(-c3ccc(F)cc3)c(-c3ccncc3)c2C)cc1OC` (centres undefined): 69% and 18%.
With `Cc1c(-c2ccncc2)c(-c2ccc(F)cc2)nn1CC(=O)N[C@@H](C)c1ccccc1`, the inhibition amounted to 83% in test [1] and 46% in test [2] (concentration not given here).
Take `C[C@H](NS(=O)(=O)c1cc(Cl)cc(Cl)c1O)c1[nH]nc(-c2ccc(F)cc2)c1-c1ccncc1`: the IC50 in test [1] came out at 0.17 µM. The inhibition in test [2] (concentration not given here) amounted to 76%.
Consider `COc1ccc(CN(CCc2ccccc2)C(=O)Cn2nc(-c3ccc(F)cc3)c(-c3ccncc3)c2C)cc1`, for which the inhibition in test [1] came out at 75%. The molecule further showed a half-maximal inhibitory concentration (IC50) in test [2] of more than 10 µM.
Turning to `C=CCOC(=O)NCc1[nH]nc(-c2ccc(F)cc2)c1-c1ccncc1`, the inhibition in test [1] is 97%. In test [2], the IC50 came out at 10 µM.
Consider `CS(=O)(=O)NCCc1[nH]nc(-c2ccc(F)cc2)c1-c1ccncc1`, for which the results for the inhibition in test [1] and in test [2] (concentration not given here) were 89% and 57%, respectively.
In turn, `Cc1c(-c2ccncc2)c(-c2ccc(F)cc2)nn1CC(=O)N(C)CCn1ccnc1` displayed an inhibition in test [1] of 43%. Further, the IC50 in test [2] is more than 10 µM.
For the molecule `O=S(=O)(NCc1[nH]nc(-c2ccc(F)cc2)c1-c1ccncc1)C(F)(F)F`, the 50% inhibitory concentration (IC50) in test [1] is 2.4 µM; in test [2], more than 1 µM.
`CN(C)C(=O)NCCc1[nH]nc(-c2ccc(F)cc2)c1-c1ccncc1`: the inhibition came out at 75% in test [1] and 52% in test [2] (concentration not given here).
Taken in the same sequence, the figures for `CCCCOc1ccc(NC(=O)NCc2[nH]nc(-c3ccc(F)cc3)c2-c2ccncc2)cc1` were 42% and 13%.
Taken in the same sequence, the figures for `O=S(=O)(NCCCc1[nH]nc(-c2ccc(F)cc2)c1-c1ccncc1)C(F)(F)F` were 74% and 68%.
As to `CCCCCc1cccc(C(C)NC(=O)Cn2nc(-c3ccc(F)cc3)c(-c3ccncc3)c2C)c1` (centres undefined), the inhibition is 65% in test [1] and 25% in test [2] (concentration not given here).
The matching figures for `C[C@@H](NC(=O)NCCCc1[nH]nc(-c2ccc(F)cc2)c1-c1ccncc1)c1ccccc1`: 65% and 9%.
In the case of `O=C(NCCc1[nH]nc(-c2ccc(F)cc2)c1-c1ccncc1)Nc1cccc(F)c1`, the inhibition was found to be 72% in test [1] and 66% in test [2] (concentration not given here).
The matching figures for `Cc1c(-c2ccncc2)c(-c2ccc(F)cc2)nn1CC(=O)N1CCC[C@H]1CN1CCCC1`: 49% and 10%.
Turning to `C=Cc1ccc(S(=O)(=O)NCc2[nH]nc(-c3ccc(F)cc3)c2-c2ccncc2)cc1`, the inhibition in test [1] amounted to 67%; in test [2] (concentration not given here), 9%.
In test [1], `O=C(NCCCc1[nH]nc(-c2ccc(F)cc2)c1-c1ccncc1)NCCN1CCOCC1` returned an IC50 of 0.055 µM. In test [2] (concentration not given here), the inhibition was determined as 20%.
Taken in the same sequence, the figures for `CC(=O)Nc1ccc(S(=O)(=O)N[C@@H](C)c2[nH]nc(-c3ccc(F)cc3)c2-c2ccncc2)cc1` were 0.059 µM and 73%.
Turning to `CC(=O)NCCc1[nH]nc(-c2ccc(F)cc2)c1-c1ccncc1`, the inhibition in test [1] was determined as 78%; in test [2] (concentration not given here) it was 79%.
For `COCCN(Cc1cccc(OC)c1)C(=O)Cn1nc(-c2ccc(F)cc2)c(-c2ccncc2)c1C`, the inhibition in test [1] is 37%; in test [2] (concentration not given here), 22%.
The molecule `CC1(C)[C@@H]2CC[C@]1(CS(=O)(=O)NCCCc1[nH]nc(-c3ccc(F)cc3)c1-c1ccncc1)C(=O)C2` came in with a half-inhibitory concentration (IC50) in test [1] of less than 0.1 µM. The molecule also displayed an inhibition in test [2] (concentration not given here) of 59%.
`COc1ccc(S(=O)(=O)NCCc2[nH]nc(-c3ccc(F)cc3)c2-c2ccncc2)cc1`: the inhibition was 61% in test [1] and 23% in test [2] (concentration not given here).
As for `O=C(NCCCc1[nH]nc(-c2ccc(F)cc2)c1-c1ccncc1)c1ccccc1C(F)(F)F`, the inhibition in test [1] amounted to 65%; in test [2] (concentration not given here) it was 62%.
Turning to `CC(=O)OCC(=O)NCCCc1[nH]nc(-c2ccc(F)cc2)c1-c1ccncc1`, the inhibition in test [1] is 74%. The molecule further showed an IC50 in test [2] of 0.68 µM.
Turning to `CC[C@H](NC(=O)Cn1nc(-c2ccc(F)cc2)c(-c2ccncc2)c1C)c1ccccc1`, the figures for the inhibition in test [1] and in test [2] (concentration not given here) were 48% and 35%, respectively.
Turning to `C[C@H](NC(=O)NCCCc1[nH]nc(-c2ccc(F)cc2)c1-c1ccncc1)c1ccccc1`, the inhibition in test [1] amounted to 85%; in test [2] (concentration not given here) it was 37%.
`CCC(=O)C(=O)CNC(=O)NCc1[nH]nc(-c2ccc(F)cc2)c1-c1ccncc1` showed an inhibition in test [1] of 51%. The IC50 in test [2] is more than 1 µM.
With `O=S(=O)(NCCc1[nH]nc(-c2ccc(F)cc2)c1-c1ccncc1)C(F)(F)F`, the inhibition was found to be 82% in test [1] and 66% in test [2] (concentration not given here).
The matching figures for `CC(=O)OCC(=O)NCCc1[nH]nc(-c2ccc(F)cc2)c1-c1ccncc1`: 62% and 57%.
In the case of `O=C(NCCCc1[nH]nc(-c2ccc(F)cc2)c1-c1ccncc1)C1CCC1`, the inhibition in test [1] worked out at 66%. This molecule yielded an IC50 in test [2] of 0.99 µM.
`C[C@H](NC(=O)c1cc(F)cc(F)c1)c1[nH]nc(-c2ccc(F)cc2)c1-c1ccncc1` yielded an IC50 in test [1] of 0.062 µM. In test [2] (concentration not given here), this molecule had an inhibition of 45%.
Regarding `Cc1cccc(C)c1NC(=O)Cn1nc(-c2ccc(F)cc2)c(-c2ccncc2)c1C`, the inhibition was determined as 83% in test [1] and 18% in test [2] (concentration not given here).
Taken in the same sequence, the figures for `O=S(=O)(NCCc1[nH]nc(-c2ccc(F)cc2)c1-c1ccncc1)c1ccccc1` were 88% and 20%.
With `O=C(NCCc1[nH]nc(-c2ccc(F)cc2)c1-c1ccncc1)c1cccc(Br)c1`, the figures for the inhibition in test [1] and in test [2] (concentration not given here) were 0% and 26%, respectively.
Turning to `CCCCS(=O)(=O)NCCc1[nH]nc(-c2ccc(F)cc2)c1-c1ccncc1`, the inhibition in test [1] was determined as 84%; in test [2] (concentration not given here) it was 53%.
In the case of `O=C(NCCc1[nH]nc(-c2ccc(F)cc2)c1-c1ccncc1)c1ccncc1`, the inhibition in test [1] amounted to 69%; in test [2] (concentration not given here) it was 38%.
Take `CCCCOc1ccc(NC(=O)NCCc2[nH]nc(-c3ccc(F)cc3)c2-c2ccncc2)cc1`: the inhibition amounted to 45% in test [1] and 27% in test [2] (concentration not given here).
The molecule `C=CCOC(=O)NCCCc1[nH]nc(-c2ccc(F)cc2)c1-c1ccncc1` yielded an inhibition in test [1] of 79%. Also, in test [2], the 50% inhibitory concentration (IC50) turned out to be 0.59 µM.
Take `CCN(CC)C(=O)NCCc1[nH]nc(-c2ccc(F)cc2)c1-c1ccncc1`: the inhibition in test [1] worked out at 67%; in test [2] (concentration not given here), 19%.
As to `COC(=O)C1CN1C(=O)Cn1nc(-c2ccc(F)cc2)c(-c2ccncc2)c1C` (centres undefined), the inhibition was 45% in test [1] and 24% in test [2] (concentration not given here).
The matching figures for `CC(=O)OC(C)(C)C(=O)NCCc1[nH]nc(-c2ccc(F)cc2)c1-c1ccncc1`: 70% and 71%.
